Data published in ChEMBL document CHEMBL1141203, “Transforming bivalent ligands into retractable enzyme inhibitors through polypeptide-protein interactions” (Bioorg Med Chem Lett, 2005).

Molecular target: Prothrombin (Homo sapiens, UniProt P00734)
Test: Inhibitory activity against human thrombin by amidolytic assay using chromogenic S-2238 substrate
Type: functional

Structure (SMILES)	Ki
CC[C@H](C)C[C@H](NC(=O)[C@H](CC(C)C)NC(=O)[C@H](CCCCN)NC(=O)[C@H](CCC(N)=O)NC(=O)[C@H](CCC(=O)O)NC(=O)CNC(=O)[C@H]1CCCCN1C(=O)[C@H](CCCN=C(N)N)NS(=O)(=O)c1ccc(C(C)(C)C)cc1)C(=O)N[C@@H](CO)C(=O)N[C@@H](CCC(=O)O)C(=O)N[C@@H](CCC(=O)O)C(=O)N[C@@H](CC(=O)O)C(=O)N[C@@H](CC(C)C)C(=O)NCC(=O)N[C@@H](CC(=O)O)C(=O)N[C@@H](Cc1ccccc1)C(=O)N[C@@H](CCC(=O)O)C(=O)N[C@@H](CCC(=O)O)C(=O)N[C@H](C(=O)N1CCC[C@H]1C(=O)N[C@@H](CCC(=O)O)C(=O)N[C@@H](CCC(=O)O)C(=O)N[C@@H](Cc1ccc(O)cc1)C(=O)N[C@@H](CC(C)C)C(=O)N[C@@H](CCC(N)=O)C(=O)O)[C@@H](C)CC	66 nM
CC[C@H](C)[C@H](NC(=O)[C@H](CCC(=O)O)NC(=O)[C@H](CCC(=O)O)NC(=O)[C@H](Cc1ccccc1)NC(=O)[C@H](CC(=O)O)NC(=O)CNC(=O)[C@H](CO)NC(=O)CNC(=O)[C@H](CO)NC(=O)CNC(=O)[C@H]1CCCCN1C(=O)[C@H](CCCN=C(N)N)NS(=O)(=O)c1ccc(C(C)(C)C)cc1)C(=O)N1CCC[C@H]1C(=O)N[C@@H](CCC(=O)O)C(=O)N[C@@H](CCC(=O)O)C(=O)N[C@@H](Cc1ccc(O)cc1)C(=O)N[C@@H](CC(C)C)C(=O)N[C@@H](CCC(N)=O)C(=O)O	36 nM
